How the values were obtained:
Format in all cases: in vivo
[1] = test system: Scirtothrips dorsalis; test: Example 10: tea plants against Scirtothrips dorsalis; details: 7 d after treatment, nymphs, Ethiprole (SC10) 0.005, (I-4) (100 OD) 0.01, Imidacloprid (50 WG) 0.005 % a.s.
Description: Plots approx. 5 m^2 in size which are planted with tea plants cv. “Yabukita” which are approximately 18 years old are treated, in three replications, against Scirtothrips dorsalis. Here, the active substance Example (I-4) (100 OD) is tested, at the specified application rates, against the commercial standards Ethiprole (SC10 flowable) and Imidacloprid (50 WG). The application is carried out with a sprayer which is operated with pressurized air. The water application rate is 4500 l/ha. The test is evaluated 7 days after the treatment by scoring the destruction rate of the nymphs and the plants.

[2] = test system: Phyllocnistis citrella; test: Example 27: orange trees against Phyllocnistis citrella; details: larvae on shoots; for Efficacy (% Abbott) 7 d: 7 d after treatment, Imidacloprid (192 SC) 140, (I-4) (150 OD) 132 g a.s./ha; for Efficacy (% Abbott) 14 d: 14 d after treatment, Imidacloprid 140, (I-4) 132 g a.s./ha
Description: Small orange trees on plots approximately 30 m^2 in size are treated, in four replications, against Phyllocnistis citrella. The application is carried out with a motor-operated knapsack sprayer. Here, the active substance Example (I-4) (150 OD) is tested against the commercial standard Imidacloprid (192 SC) at the specified rates. The water application rate is 935 l/ha.
The test is evaluated 7 and 14 days after the treatment by scoring the destruction rates of the larvae on the shoots in percent.

[3] = test system: Thrips palmi; test: Example 7: aubergines against Thrips palmi; details: for Efficacy (% Abbott) 7 d: 7 d after the second application, 20 leaves, Imidacloprid (100 SL) 0.0151 % a.s., (I-4) (+ 0.2% rapeseed oil methyl ester) 0.0096 % a.s.; for Efficacy (% Abbott) 13 d: 13 d after the second application; for Efficacy (% Abbott) 13 d / Efficacy (% Abbott) 21 d: Imidacloprid 0.0151 % a.s., (I-4) 0.0096 % a.s.; for Efficacy (% Abbott) 21 d: 21 d after the second application
Description: Plots approximately 16.5 m^2 in size which are planted with aubergines are treated, in three replications, against Thrips palmi. Here, the active substance Example (I-4) and the commercial standard Imidacloprid (100 SL) is applied at the specified application rates, using a knapsack sprayer which is operated with compressed air. The water application rate is 750 l/ha. In the case of Example (I-4), 0.2% a.s. rapeseed oil methyl ester (500 EW) is added to the spray mixture. Three applications are carried out at intervals of 7 and 14 days, respectively.
The destruction rate in percent is determined on in each case 20 leaves. The following results are obtained 7, 13 and 21 days after the second application: […]

[4] = test system: Empoasca biguttula; test: Example 16: aubergines against Empoasca biguttula; details: for Efficacy (% Abott) 2 d: 2 d after first treatment, nymphs, Imidacloprid (SL 100) 30, (I-4) (150 OD) 50, Profenofos (500 EC) 500 g a.s./ha, two applications, interval 7 days; for Efficacy (% Abott) 6 d: 6 d after first treatment; for Efficacy (% Abott) 6 d / Efficacy (% Abott) 13 d: Imidacloprid 30, (I-4) 50, Profenofos 500 g a.s./ha; for Efficacy (% Abott) 13 d: 13 d after first treatment
Description: Plots 10 m^2 in size which are planted with aubergines are treated, in three replications, against Empoasca biguttula. The application is carried out with a knapsack sprayer which is operated with pressurized air. Here, the active substance Example (I-4) (150 OD) is tested against the commercial standards Imidacloprid (SL 100) and Profenofos (500 EC) at the specified application rates. Two applications are carried out at an interval of 7 days. The water application rate is 750 l/ha.
The test is evaluated 2, 6 and 13 days after the first treatment by scoring the destruction rates of the animals (nymphs) on the plants.

[5] = test system: Dalbulus maidis; test: Example 13: dwarf beans against Dalbulus maidis; details: nymphs on leaves, all 96 g a.s./ha; for Efficacy (% Abbott) 7 d: 7 d after second treatment, 240 SC + 0.1% rapeseed oil methyl ester, Imidacloprid 200 SL; for Efficacy (% Abbott) 11 d: 11 d after second treatment
Description: Plots approx. 10 m^2 in size which are planted with dwarf beans cv. “Carioquinha” are treated, in three replications, against Dalbulus maidis. The application is carried out with a knapsack sprayer which is operated with pressurized air. Here, the active substances Example (I-4) (240 SC) and Example (I-9) (240 SC), in a tank mix with 0.1% a.s. rapeseed oil methyl ester (500 EW) and the commercial standard Imidacloprid (200 SL), are applied at the specified application rates. Two applications are carried out at an interval of 7 days, using a water application rate of 300 l/ha.
The test is evaluated 7 and 11 days after the second treatment by scoring the destruction rate of the animals (nymphs) on the leaves.

[6] = test system: Lygus spinolai; test: Example 1A: field test on tea plants against Lygus spinolai; details: nymphs on shoots, Imidacloprid (10 WP) 0.005 % a.s., (I-4) (150 OD) 0.01 % a.s.; for Efficacy (% Abbott) 15 d: 15 d after treatment; for Efficacy (% Abbott) 29 d: 29 d after treatment
Description: Plots approximately 4 m^2 in size which are planted with tea plants c.v. “Yabukita” are treated, in 3 replications, against Lygus spinolai. Here, the active substance Example (I-4) (150 OD) is tested at the specified application rate against the commercial standard Imidacloprid (10 WP) at the specified application rate. The application is effected with an engine-driven knapsack sprayer. Here, the treatment is carried out with a water application rate of 10 000 l/ha.
The test is evaluated 15 and 29 days after the treatment by determining the destruction of the nymphs on the shoots.

[7] = test system: olive fruit fly (Dacus oleae); test: Example 22B: laboratory experiment, olives against olive fruit fly; details: olives treated three days after oviposition; Imidacloprid (200 SL) 0.01 %, (I-4) (100 OD) 0.02 %, Fenthion (500 EC) 0.05 %; untreated 84.4
Description: In a laboratory experiment, 40 olives are treated, in four replications, against the olive fruit fly (Dacus oleae) three days after oviposition. Here, the active substance (I-4) (100 OD) and the commercial standards Fenthion (500 EC) and Imidacloprid (200 SL) are tested at the specified application rates.
The test is evaluated 14 days after oviposition by counting the number of feeding tunnels (larval development completed), while the absence of such feeding tunnels indicates the efficacy against the larvae.

[8] = test system: Idioscopus clypealis; test: Example 14: mango tree against Idioscopus clypealis; details: nymphs on infructescences; for Efficacy (% Abbott) 7 days after treatment 4 / Efficacy (% Abbott) 7 days after treatment 5: Imidacloprid 0.00025 %, (I-4) 0.0016 %, Pymetrozine 0.002 %; for Efficacy (% Abbott) 7 days after treatment 3: Imidacloprid (100 SL) 0.00025 %, (I-4) (240 SC + 0.2% rapeseed oil methyl ester) 0.0016 %, Pymetrozine (WP 25) 0.002 %
Description: A mango tree which is approximately 14 years old is treated, in three replications, against Idioscopus clypealis. The application is carried out with a high-pressure sprayer. Here, the active substance Example (I-4) (240 SC), in a tank mix with 0.2% a.s. rapeseed oil methyl ester (500 EW) and the commercial standards Imidacloprid (100 SL) and Pymetrozine (WP 25), is tested at the specified application rates. The amount of spray mixture is 10 l/tree. Five treatments are carried out at intervals of 7, 14, 21 and 28 days.
The test is evaluated in each case 7 days after treatments 3 to 5 by scoring the destruction rate of the nymphs on the infructescences.

| Compound | Efficacy (% Abbott) 7 d [1] | Efficacy (% Abbott) 7 d [2] | Efficacy (% Abbott) 14 d [2] | Efficacy (% Abbott) 7 d [3] | Efficacy (% Abbott) 13 d [3] | Efficacy (% Abbott) 21 d [3] | Efficacy (% Abott) 2 d [4] | Efficacy (% Abott) 6 d [4] | Efficacy (% Abott) 13 d [4] | Efficacy (% Abbott) 7 d [5] | Efficacy (% Abbott) 11 d [5] | Efficacy (% Abbott) 15 d [6] | Efficacy (% Abbott) 29 d [6] | Number of feeding tunnels (%) 14 days after oviposition [7] | Efficacy (% Abbott) 7 days after treatment 4 [8] | Efficacy (% Abbott) 7 days after treatment 5 [8] | Efficacy (% Abbott) 7 days after treatment 3 [8] |
| --- | --- | --- | --- | --- | --- | --- | --- | --- | --- | --- | --- | --- | --- | --- | --- | --- | --- |
| CCOC(=O)OC1=C(c2cc(C)ccc2C)C(=O)N[C@]12CC[C@@H](OC)CC2 [Example (I-4)] | 100 % Abbott | 97.9 % Abbott | 68.2 % Abbott | 84 % Abbott | 88 % Abbott | 78 % Abbott | 52.4 % Abott | 56.0 % Abott | 66.7 % Abott | 73 % Abbott | 69 % Abbott | 92.9 % Abbott | 100 % Abbott | 3.1% | 98.1 % Abbott | 99.4 % Abbott | 54.7 % Abbott |
| O=[N+]([O-])NC1=NCCN1Cc1ccc(Cl)nc1 [Imidacloprid] | 44.4 % Abbott | 91.7 % Abbott | 52.3 % Abbott | 72 % Abbott | 68 % Abbott | 24 % Abbott | 38.1 % Abott | 71.6 % Abott | 58.7 % Abott | 82 % Abbott | 74 % Abbott | 35.7 % Abbott | 48.1 % Abbott | 11.9% | 82.2 % Abbott | 86.4 % Abbott | 69.1 % Abbott |

Reference: patent US20090298903A1, “USE OF TETRAMIC ACID DERIVATIVES FOR INSECT CONTROL” (priority 2006, published 2009)
